Reference: patent publication US8361516B2, “Composition comprising sarsasapogenin” (priority 2006, dated 2013)

Columns and labels:
[1] = tested on: 3T3-L1 cells; assay: Stimulation of lipid uptake, red oil staining with image analysis; format: cell-based; details: mean for n = 3 tests
Description: Principle: adipocyte differentiation is a decisive stage in the transformation of pre-adipocytes into lipid-laden mature adipocytes. The intracellular accumulation of lipids is determined by conventional red oil staining (neutral lipid marker). The stained lipids can then be quantified under the microscope.
Protocol: 3T3-L1 cells were inoculated and cultured for 4 days (multiplication). This was followed by a differentiation phase (incubation with the conventional differentiation cocktail) and a maturation phase (maturation cocktail) in the absence or presence of sarsasapogenin at various concentrations.
At the end of that period, the cells were washed, fixed and stained with red oil. The cell layers were digitally photographed and the red staining quantified by image analysis.
The percentage red oil areas, shown in table 1, were expressed relative to the untreated control cells and the test was validated by comparison with pioglitazone (10 μM), the positive control for differentiation stimulation.

[2] = tested on: 3T3-L1 cells; assay: Residual proliferation capability during the differentiation phase (Hoechst test); format: cell-based; details: 3 days with differentiation cocktail
Description: The pre-adipocytes undergo a multiplication phase (clonal expansion) before beginning to differentiate.
A product stimulating proliferation would thus enable adipocytes that have already entered the differentiation phase to maintain a replication capability.
Protocol: 3T3-L1 cells were inoculated and cultured to confluence over 4 days (clonal expansion). The conventional differentiation cocktail was added to the culture and the cells were incubated in the absence (control) or in the presence of rising concentrations of sarsasapogenin for 3 days. Following incubation, the cell layers were harvested and subjected to a Hoechst test to quantify cell proliferation vs. the proliferation of the control cells and the cells incubated in the presence of pioglitazone (positive control).

[3] = tested on: human adipocytes; assay: Stimulation of lipid uptake in human adipocytes; format: cell-based
Text: 4. Stimulation of Lipid Uptake by 3T3-L1 Cells and Human Adipocytes
The results were reproduced using human adipocytes.

[4] = tested on: mature adipocytes; assay: Gene expression profile, effect on mature adipocytes (CodeLink Whole Genome chips); format: cell-based, Human; details: mature adipocytes exposed 24 h
Description: (§1) Two studies were conducted: one addressed the effect of sarsasapogenin on differentiation using a pre-adipocyte culture; the other addressed the effect of sarsasapogenin on mature adipocytes.
(§2) Human pre-adipocyte cells were inoculated and cultured (multiplication) for 5 days. Then: • either the cells were exposed to the induction medium in the presence or absence of sarsasapogenin for 8 or 24 h before culture arrest (study of the effect of sarsasapogenin on differentiation), • or the cells were exposed to the differentiation medium for 10 days, yielding mature adipocytes, then exposed or not exposed to sarsasapogenin for 24 h (study of the effect of sarsasapogenin on maturation).
(§3) At each time point, the mRNA of the cells was extracted using a commercially available kit (Roche Kit V6—Extraction of total RNA). In parallel, solvent controls were run and subjected to extraction in the same manner. The expression profile of the gene sequences was determined using CodeLink Whole Genome chips for each sample of RNA purified. The values obtained were normalized on the controls.

[5] = tested on: 3T3-L1 cells; assay: Stimulation of differentiation: G3PDH activity; format: cell-based; details: mean for n = 3 tests
Description: Principle: after an in vivo proliferation phase, the pre-adipocytes begin differentiating under the influence of specific endogenous factors (in particular, glucocorticoids and insulin). In vitro, those factors are included in the conventional cocktail used to trigger differentiation.
The maintenance or amplification of differentiation when the cells are subsequently cultured in a simple maintenance medium is determined by assay of glycerol-3-phosphate dehydrogenase, G3PDH (or GPDH). The enzyme is involved in energy metabolism. Its activity regularly increases through the differentiation process.
Protocol: as previously, 3T3-L1 cells were cultured to confluence, then underwent differentiation induction with the conventional cocktail and were incubated in the absence or presence of sarsasapogenin at various concentrations. After 3 days of incubation, the differentiation cocktail was replaced by culture maintenance medium in the presence or absence of sarsasapogenin. After 3 days of incubation, the cell layers were harvested and G3PDH activity determined.

[6] = tested on: Human pre-adipocyte cells; assay: Gene expression profile, effect on differentiation (pre-adipocyte culture, CodeLink Whole Genome chips); format: cell-based
Description: as §1, §2, §3

[7] = time points 8 and 24 h of differentiation
[8] = values normalized on the controls, time point not stated

C[C@H]1CC[C@@]2(OC1)O[C@H]1C[C@H]3[C@@H]4CC[C@@H]5C[C@@H](O)CC[C@]5(C)[C@H]4CC[C@]3(C)[C@H]1[C@@H]2C [Sarsasapogenin, (3β, 5β, 25-S)-Spirostan-3-ol]
% change in red oil content vs. control ([1]; 5 μM): +135%
% change in red oil content vs. control ([1]; 10 μM): +274%
% change in red oil content vs. control ([1]; 17.5 μM): +492%
% change in red oil content vs. control ([1]; 17.5 μM, listed as sarsasapogenin): greater than 492%
Proliferation vs. Control ([2]; 5 μM): +20.5% (p < 0.01)
Proliferation vs. Control ([2]; 10 μM): +31.6% (p < 0.01)
Proliferation vs. Control ([2]; 20 μM): +35.2% (p < 0.01)
lipid incorporation results in human adipocytes [3]: reproduced
status of gene p21 [4]: activated status of gene p21 was maintained
Change in G3PDH activity vs. control (%) ([5]; 5 μM): +103% (p < 0.01)
Change in G3PDH activity vs. control (%) ([5]; 10 μM): +201% (p < 0.01)
Change in G3PDH activity vs. control (%) ([5]; 15 μM): +429% (p < 0.01)
Change in G3PDH activity vs. control (%) ([5]; 17.5 μM): +535% (p < 0.01)
activation of the gene coding for protein MNT (MAX binding protein) ([6]; after 8 and 24 h of differentiation, normalized on solvent controls): induces activation
cyclin D3 gene up-regulation ([6]; normalized on the controls): markedly up-regulated
gene coding for Kruppel-like factor 5 (KLF5) ([6]; normalized on the controls): increase
induction of NPTXR / pentraxin-related gene ([6]; time point 24 h, normalized on the controls): > 7
SLC2A5/GLUT5 gene activation [6, 7]: activated
gene RAFTLIN activation [6, 7]: activated
induction of adipose differentiation-related protein (ADRP) or adipophilin ([6]; values normalized on the controls, study and time point not stated): > 4
gene COPS3 up-regulation [6, 8]: > 5
gene COPS5 up-regulation [6, 8]: > 5
increase in KLK10 (kallikrein) [6, 8]: > 10

CCc1ccc(CCOc2ccc(CC3SC(=O)NC3=O)cc2)nc1 (stereo not shown) [pioglitazone, reference compound]
% change in red oil content vs. control ([1]; 10 μM): +359%
Proliferation vs. Control ([2]; 10 μM): +49% (p < 0.01)
